Target: T1, ATP-citrate synthase (Homo sapiens, UniProt P53396)
T1 sequence (P53396 whole entry): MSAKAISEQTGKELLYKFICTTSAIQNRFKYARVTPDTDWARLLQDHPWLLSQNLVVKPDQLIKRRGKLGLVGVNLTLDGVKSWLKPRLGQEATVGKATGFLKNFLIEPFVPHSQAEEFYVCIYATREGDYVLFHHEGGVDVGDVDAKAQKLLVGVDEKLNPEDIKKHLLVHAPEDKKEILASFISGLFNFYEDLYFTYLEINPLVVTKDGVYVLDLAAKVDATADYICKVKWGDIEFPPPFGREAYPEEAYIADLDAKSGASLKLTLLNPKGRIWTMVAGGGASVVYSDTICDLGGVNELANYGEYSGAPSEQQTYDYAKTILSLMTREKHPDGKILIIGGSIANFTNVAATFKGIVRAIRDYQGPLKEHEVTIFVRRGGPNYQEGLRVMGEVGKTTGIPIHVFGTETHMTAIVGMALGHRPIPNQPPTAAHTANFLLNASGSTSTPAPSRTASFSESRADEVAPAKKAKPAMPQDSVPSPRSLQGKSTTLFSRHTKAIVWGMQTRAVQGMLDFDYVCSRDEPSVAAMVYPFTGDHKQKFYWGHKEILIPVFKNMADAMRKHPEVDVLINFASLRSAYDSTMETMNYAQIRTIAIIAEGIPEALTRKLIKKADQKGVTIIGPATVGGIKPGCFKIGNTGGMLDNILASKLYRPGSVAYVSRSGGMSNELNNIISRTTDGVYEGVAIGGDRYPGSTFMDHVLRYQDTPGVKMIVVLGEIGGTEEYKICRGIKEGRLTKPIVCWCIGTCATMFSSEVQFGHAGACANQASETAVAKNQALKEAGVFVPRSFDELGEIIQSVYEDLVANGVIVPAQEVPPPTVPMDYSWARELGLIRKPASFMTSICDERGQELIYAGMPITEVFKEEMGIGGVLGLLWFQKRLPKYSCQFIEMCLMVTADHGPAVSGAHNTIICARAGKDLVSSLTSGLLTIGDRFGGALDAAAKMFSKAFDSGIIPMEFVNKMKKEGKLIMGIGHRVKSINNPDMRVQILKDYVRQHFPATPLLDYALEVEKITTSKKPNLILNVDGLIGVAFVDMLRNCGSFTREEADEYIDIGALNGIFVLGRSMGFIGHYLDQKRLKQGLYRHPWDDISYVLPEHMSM
Experiment: ADP-Glo Assay: Materials and Instruments Used in the ADP-Glo AssayVendor Cat No.Materials ACL Sino Biological 11769-H07BCoANa2 Sigma C3144Potassium Citrate Sigma 89306ATP Promega V915BADP-GloTM Kinase Assay Promega V9102kitHEPES Life Technologies 15630080MgCl2 Sigma M1028Brij 35 detergent Merck 203728DTT Sigma 646563DMSO MP 196055Optiplate-384, White 384- Perkin Elmer 6007290well384 dilution …

IC50: < 50 nM
Structure (SMILES): O=C(c1cc(Cl)c(O)c(S(=O)(=O)Nc2cc(-c3cc4ccccc4s3)c(F)cc2OC(F)(F)F)c1)N1CCC1
